In patent US4383992A, “Water-soluble steroid compounds” (priority 1982, dated 1983):

Test: Dissolution of steroid with alpha-cyclodextrin in aqueous suspension
Type: physicochemical
Settings: 120 mg alpha-cyclodextrin added to 5 ml aqueous suspension, room temperature, agitated for several minutes
Experimental: 120 mg of alpha-cyclodextrin was added to 5 ml of an aqueous suspension of dexamethasone at room temperature.

In the case of `C[C@@H]1C[C@H]2[C@@H]3CCC4=CC(=O)C=C[C@]4(C)[C@@]3(F)[C@@H](O)C[C@]2(C)[C@@]1(O)C(=O)CO` [dexamethasone, 9-Fluoro-11β,17,21-trihydroxy-16α-methylpregna-1,4-diene-3,20-dione], the “dissolution of steroid with alpha-cyclodextrin” value was “did not dissolve and remained in suspension”.
